Results as given in patent US20210395239A1 (Hoffmann-La Roche Inc., priority 2018, published 2021).
pIC50: −log10 of the molar value.

Biological target: T1, hTLR9 (Homo sapiens, UniProt Q9NR96)
T1 sequence (Q9NR96 26-1032): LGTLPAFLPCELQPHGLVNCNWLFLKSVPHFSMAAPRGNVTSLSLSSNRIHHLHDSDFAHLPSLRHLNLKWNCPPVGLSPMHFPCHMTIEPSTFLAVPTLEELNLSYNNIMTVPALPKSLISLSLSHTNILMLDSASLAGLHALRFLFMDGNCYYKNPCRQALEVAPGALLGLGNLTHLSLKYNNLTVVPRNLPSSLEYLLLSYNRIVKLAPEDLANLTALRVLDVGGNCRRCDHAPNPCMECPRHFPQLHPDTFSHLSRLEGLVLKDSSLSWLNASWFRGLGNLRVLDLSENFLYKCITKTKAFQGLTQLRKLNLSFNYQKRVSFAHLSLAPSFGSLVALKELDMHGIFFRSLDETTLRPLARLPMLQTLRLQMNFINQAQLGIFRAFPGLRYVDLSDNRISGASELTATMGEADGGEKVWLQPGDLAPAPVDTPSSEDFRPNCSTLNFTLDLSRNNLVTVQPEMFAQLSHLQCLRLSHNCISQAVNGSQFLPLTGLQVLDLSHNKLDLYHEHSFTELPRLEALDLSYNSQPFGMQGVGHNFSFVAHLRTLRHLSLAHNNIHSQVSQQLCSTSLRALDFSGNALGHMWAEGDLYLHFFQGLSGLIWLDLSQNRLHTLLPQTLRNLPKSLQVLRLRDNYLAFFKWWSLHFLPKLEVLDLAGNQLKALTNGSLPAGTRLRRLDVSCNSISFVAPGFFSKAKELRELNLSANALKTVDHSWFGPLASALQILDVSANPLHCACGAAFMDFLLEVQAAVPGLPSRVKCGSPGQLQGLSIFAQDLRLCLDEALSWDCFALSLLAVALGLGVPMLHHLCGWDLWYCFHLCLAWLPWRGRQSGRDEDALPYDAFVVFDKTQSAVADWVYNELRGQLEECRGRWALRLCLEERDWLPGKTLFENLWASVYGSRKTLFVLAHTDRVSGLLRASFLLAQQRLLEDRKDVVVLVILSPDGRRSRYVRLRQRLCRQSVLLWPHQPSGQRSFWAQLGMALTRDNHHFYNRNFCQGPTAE
Test: HEK293-Blue-hTLR-9 cells assay (SEAP reporter, ODN2006 stimulation)
Format: cell-based
Parameters: host or cells: HEK293 (HEK-Blue hTLR9)
Details: HEK293-Blue-hTLR9 cells, ODN2006, 20 hrs; read-out: HEK/hTLR9 IC50
How it was run: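 Antagonism read as lowered SEAP reporter absorbance (620–655 nm, QUANTI-Blue, 2 h, 37 °C) in supernatants. Before that, ODN2006-stimulated HEK293-Blue cells stably expressing human TLR9 were exposed to compound dilutions at 1% final DMSO for 20 h at 37 °C.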

SMILES | pIC50
Cc1cc(N2CCN(C[C@H]3CN(c4ccc(C#N)c5ncccc45)C[C@@H](C)O3)CC2)nc(N2C[C@H](N)C[C@H](F)C2)n1 (relative stereo) [Example 74, 5-[(2R,6S)-2-methyl-6-[[4-[6-methyl-2-[cis-3-amino-5-fluoro-1-piperidyl]pyrimidin-4-yl]piperazin-1-yl]methyl]morpholin-4-yl]quinoline-8-carbonitrile] | 7.14
CO[C@@H]1CN(c2nc(C)cc(N3CCN(C[C@H]4CN(c5ccc(C#N)c6ncccc56)C[C@@H](C)O4)CC3)n2)C[C@H]1N (single isomer, unassigned) [Example 69B] | 7.15
Cc1cc(N2CCN(C[C@H]3CN(c4ccc(C#N)c5ncccc45)C[C@@H](C)O3)CC2)nc(N2CC[C@@H](F)C(N)C2)n1 (single isomer, unassigned) [Example 84] | 6.98
COC1CN(c2nc(C)cc(N3CCN(C[C@H]4CN(c5ccc(C#N)c6ncccc56)C[C@@H](C)O4)CC3)n2)CC1N (single isomer, unassigned) [Example 88] | 7.15
COC1CNCC1Nc1nc(C)cc(N2CCN(C[C@H]3CN(c4ccc(C#N)c5ncccc45)C[C@@H](C)O3)CC2)n1 (stereo in doubt) [Example 70, 5-[(2S,6R)-2-[[4-[2-[[(3R,4R)-4-methoxypyrrolidin-3-yl]amino]-6-methyl-pyrimidin-4-yl]piperazin-1-yl]methyl]-6-methyl-morpholin-4-yl]quinoline-8-carbonitrile] | 7.10
Cc1cc(N2CCN(C[C@H]3CN(c4ccc(C#N)c5ncccc45)C[C@@H](C)O3)CC2)nc(NC2CNCC2F)n1 (stereo in doubt) [Example 73, 5-[(2S,6R)-2-[[4-[2-[[(3S,4R)-4-fluoropyrrolidin-3-yl]amino]-6-methyl-pyrimidin-4-yl]piperazin-1-yl]methyl]-6-methyl-morpholin-4-yl]quinoline-8-carbonitrile] | 7.16
Cc1cc(N2CCN(C[C@H]3CN(c4ccc(C#N)c5ncccc45)C[C@@H](C)O3)CC2)nc(N[C@@H]2CNC[C@@H]2F)n1 [Example 71, 5-[(2S,6R)-2-[[4-[2-[[(3R,4S)-4-fluoropyrrolidin-3-yl]amino]-6-methyl-pyrimidin-4-yl]piperazin-1-yl]methyl]-6-methyl-morpholin-4-yl]quinoline-8-carbonitrile] | 7.18
Cc1cc(N2CCN(C[C@H]3CN(c4ccc(C#N)c5ncccc45)C[C@@H](C)O3)CC2)nc(N2CC[C@@H](N)[C@@H](F)C2)n1 [Example 78, 5-[(2S,6R)-2-[[4-[2-[(3S,4R)-4-amino-3-fluoro-1-piperidyl]-6-methyl-pyrimidin-4-yl]piperazin-1-yl]methyl]-6-methyl-morpholin-4-yl]quinoline-8-carbonitrile] | 7.19
Cc1cc(N2CCN(C[C@H]3CN(c4ccc(C#N)c5ncccc45)C[C@@H](C)O3)CC2)nc(N2C[C@@H](N)[C@H](F)C2)n1 [Example 79, 5-[(2S,6R)-2-[[4-[2-[(3R,4R)-3-amino-4-fluoro-pyrrolidin-1-yl]-6-methyl-pyrimidin-4-yl]piperazin-1-yl]methyl]-6-methyl-morpholin-4-yl]quinoline-8-carbonitrile] | 7.20
Cc1cc(N2CCN(C[C@H]3CN(c4ccc(C#N)c5ncccc45)C[C@@H](C)O3)CC2)nc(N2CC(N)CC(F)(F)C2)n1 (stereo partly drawn) [Example 80, 5-[(2S,6R)-2-[[4-[2-(5-amino-3,3-difluoro-1-piperidyl)-6-methyl-pyrimidin-4-yl]piperazin-1-yl]methyl]-6-methyl-morpholin-4-yl]quinoline-8-carbonitrile] | 6.92
Cc1cc(N2CCN(C[C@H]3CN(c4ccc(C#N)c5ncccc45)C[C@@H](C)O3)CC2)nc(N2CC[C@@H](F)[C@@H](N)C2)n1 [Example 83, 5-[(2R,6S)-2-methyl-6-[[4-[6-methyl-2-[(3S,4R)-3-amino-4-fluoro-1-piperidyl]-pyrimidin-4-yl]piperazin-1-yl]methyl]morpholin-4-yl]quinoline-8-carbonitrile] | 7.02
Cc1cc(N2CCN(C[C@H]3CN(c4ccc(C#N)c5ncccc45)C[C@@H](C)O3)CC2)nc(N2CCC(N)C(F)(F)C2)n1 (stereo partly drawn) [Example 86, 5-[(2S,6R)-2-[[4-[2-(4-amino-3,3-difluoro-1-piperidyl)-6-methyl-pyrimidin-4-yl]piperazin-1-yl]methyl]-6-methyl-morpholin-4-yl]quinoline-8-carbonitrile] | 6.72
Cc1cc(N2CCN(C[C@H]3CN(c4ccc(C#N)c5ncccc45)C[C@@H](C)O3)CC2)nc(N2CC(N)C2)n1 [Example 87, 5-[(2S,6R)-2-[[4-[2-(3-aminoazetidin-1-yl)-6-methyl-pyrimidin-4-yl]piperazin-1-yl]methyl]-6-methyl-morpholin-4-yl]quinoline-8-carbonitrile] | 7.12
C[C@@H]1CN(c2ccc(C#N)c3ncccc23)C[C@H](CN2CCN(c3ccccc3C3CNCCO3)CC2)O1 (stereo partly drawn) [Example 89, 5-[(2R,6S)-2-methyl-6-[[4-(2-morpholin-2-ylphenyl)piperazin-1-yl]methyl]morpholin-4-yl]quinoline-8-carbonitrile] | 7.00

These reach a higher pIC50. Values come first.

pIC50 | SMILES
7.24 | Cc1cc(N2CCN(C[C@H]3CN(c4ccc(C#N)c5ncccc45)C[C@@H](C)O3)CC2)nc(N2C[C@H](N)C[C@@H](F)C2)n1 (relative stereo) [Example 75, 5-[(2R,6S)-2-methyl-6-[[4-[6-methyl-2-[trans-3-amino-5-fluoro-1-piperidyl]pyrimidin-4-yl]piperazin-1-yl]methyl]morpholin-4-yl]quinoline-8-carbonitrile]
7.27 | CO[C@H]1CN(c2nc(C)cc(N3CCN(C[C@H]4CN(c5ccc(C#N)c6ncccc56)C[C@@H](C)O4)CC3)n2)C[C@@H]1N (single isomer, unassigned) [Example 69A]
7.25 | Cc1cc(N2CCN(C[C@H]3CN(c4ccc(C#N)c5ncccc45)C[C@@H](C)O3)CC2)nc(N2CC[C@@H](N)C(F)C2)n1 (stereo in doubt) [Example 82, 5-[(2S,6R)-2-[[4-[2-[(3R,4R)-4-amino-3-fluoro-1-piperidyl]-6-methyl-pyrimidin-4-yl]piperazin-1-yl]methyl]-6-methyl-morpholin-4-yl]quinoline-8-carbonitrile]
7.27 | CO[C@H]1CN(c2nc(C)cc(N3CCN(C[C@H]4CN(c5ccc(C#N)c6ncccc56)C[C@@H](C)O4)CC3)n2)CCC1N (stereo in doubt) [Example 90, 5-[(2S,6R)-2-[[4-[2-[(3S,4S)-4-amino-3-methoxy-1-piperidyl]-6-methyl-pyrimidin-4-yl]piperazin-1-yl]methyl]-6-methyl-morpholin-4-yl]quinoline-8-carbonitrile]
7.34 | CO[C@@H]1CN(c2nc(C)cc(N3CCN(C[C@H]4CN(c5ccc(C#N)c6ncccc56)C[C@@H](C)O4)CC3)n2)C[C@@H]1N [Example 72, 5-[(2S,6R)-2-[[4-[2-[(3S,4R)-3-amino-4-methoxy-pyrrolidin-1-yl]-6-methyl-pyrimidin-4-yl]piperazin-1-yl]methyl]-6-methyl-morpholin-4-yl]quinoline-8-carbonitrile]
7.30 | Cc1cc(N2CCN(C[C@H]3CN(c4ccc(C#N)c5ncccc45)C[C@@H](C)O3)CC2)nc(N[C@@H]2CNC[C@H]2F)n1 [Example 76, 5-[(2S,6R)-2-[[4-[2-[[(3R,4R)-4-fluoropyrrolidin-3-yl]amino]-6-methyl-pyrimidin-4-yl]piperazin-1-yl]methyl]-6-methyl-morpholin-4-yl]quinoline-8-carbonitrile]
7.25 | Cc1cc(N2CCN(C[C@H]3CN(c4ccc(C#N)c5ncccc45)C[C@@H](C)O3)CC2)nc(N2C[C@@H](N)C[C@@H](F)C2)n1 [Example 77, 5-[(2S,6R)-2-[[4-[2-[(3S,5R)-3-amino-5-fluoro-1-piperidyl]-6-methyl-pyrimidin-4-yl]piperazin-1-yl]methyl]-6-methyl-morpholin-4-yl]quinoline-8-carbonitrile]
7.34 | Cc1cc(N2CCN(C[C@H]3CN(c4ccc(C#N)c5ncccc45)C[C@@H](C)O3)CC2)nc(N2CCNC(C(C)(C)O)C2)n1 (stereo partly drawn) [Example 81, 5-[(2S,6R)-2-[[4-[2-[3-(1-hydroxy-1-methyl-ethyl)piperazin-1-yl]-6-methyl-pyrimidin-4-yl]piperazin-1-yl]methyl]-6-methyl-morpholin-4-yl]quinoline-8-carbonitrile]
